Each molecule was assayed against EGFR (rat) (UniProt P00533). Details: rat-1/her cells.
Chain of EGFR (rat) (P00533 whole entry, looked up): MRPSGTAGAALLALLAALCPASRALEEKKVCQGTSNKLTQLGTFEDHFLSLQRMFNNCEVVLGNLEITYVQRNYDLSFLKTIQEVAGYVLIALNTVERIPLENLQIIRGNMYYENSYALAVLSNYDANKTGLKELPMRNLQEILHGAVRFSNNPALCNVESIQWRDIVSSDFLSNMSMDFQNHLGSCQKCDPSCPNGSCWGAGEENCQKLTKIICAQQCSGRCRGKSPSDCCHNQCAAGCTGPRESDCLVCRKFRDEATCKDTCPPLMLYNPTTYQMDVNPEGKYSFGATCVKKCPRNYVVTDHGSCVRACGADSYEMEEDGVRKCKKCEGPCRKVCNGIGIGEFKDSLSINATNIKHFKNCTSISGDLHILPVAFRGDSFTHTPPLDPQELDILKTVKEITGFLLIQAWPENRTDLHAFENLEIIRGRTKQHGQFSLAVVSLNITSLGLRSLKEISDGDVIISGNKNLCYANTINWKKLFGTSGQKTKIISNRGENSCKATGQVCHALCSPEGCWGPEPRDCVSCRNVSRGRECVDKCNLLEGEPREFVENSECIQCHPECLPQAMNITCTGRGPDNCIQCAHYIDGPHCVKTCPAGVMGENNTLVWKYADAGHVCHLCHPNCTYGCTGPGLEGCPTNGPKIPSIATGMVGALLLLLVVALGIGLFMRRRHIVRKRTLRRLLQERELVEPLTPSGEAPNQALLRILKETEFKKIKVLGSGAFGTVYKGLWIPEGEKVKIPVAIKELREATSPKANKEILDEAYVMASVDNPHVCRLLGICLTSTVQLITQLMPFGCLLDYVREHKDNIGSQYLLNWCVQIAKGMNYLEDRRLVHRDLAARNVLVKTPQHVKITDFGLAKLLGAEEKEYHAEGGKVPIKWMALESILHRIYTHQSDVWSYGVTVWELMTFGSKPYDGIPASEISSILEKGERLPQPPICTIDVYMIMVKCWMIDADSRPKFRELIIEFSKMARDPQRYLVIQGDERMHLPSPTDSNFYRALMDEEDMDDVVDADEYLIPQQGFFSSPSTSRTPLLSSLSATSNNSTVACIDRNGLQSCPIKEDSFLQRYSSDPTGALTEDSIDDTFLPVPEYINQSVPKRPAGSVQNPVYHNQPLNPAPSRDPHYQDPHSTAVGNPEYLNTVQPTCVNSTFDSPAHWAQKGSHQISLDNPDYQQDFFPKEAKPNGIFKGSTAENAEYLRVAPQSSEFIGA

Compound | IC50 [µM]
COC1=C(Br)C(=O)[C@](CC#N)(OC(C)=O)C=C1Br | 55
O=Cc1cc(Br)cc(Br)c1O | 120
COC1=C(Br)C(=O)[C@]2(C=C1Br)CO2 | 10
COc1c(Br)cc(C=O)c(O)c1Br | 35

Same assay, conditions: rat-1/her cells, dose or concentration not given here

Compound | inhibition [%]
COC1=C(Br)[C@@H](O)[C@@](O)(CC#N)C=C1Br | 0
COC1=C(Br)C(O)(O)[C@@](O)(CC#N)CC1Br (stereo partly drawn) | 0
COC1=C(Br)[C@H](O)[C@@](O)(CC#N)C=C1Br | 0
COC1=C(Br)C(=O)[C@@](O)(CC#N)C=C1Br | 0
COc1c(Br)cc(CC#N)c(O)c1Br | 0
COc1c(Br)cc(CO)c(O)c1Br | 0
COc1c(Br)cc(O)c(O)c1Br | 0
COc1ccc(C=O)c(O)c1 | 0
COc1c(Br)cc2c(c1Br)OCO2 | 0

From the Kinase Knowledgebase extract (Sharma et al. 2016)
